Results reported in US11267861B2, “Peptide-oligourea foldamer compounds and methods of their use” (UREKA SARL, priority 2016, dated 2022).
In brackets after ≈: the same amount, converted by molar mass. Numbered stars: 1 amine (or outer) side, 2 acyl side, 3 side chain; on linkers, the order of the positions; unused ones are H or OH. Bridge positions count the residues as written; N and C are the ends. Square brackets hold non-standard residues; d marks the D form. Peptide text beside a SMILES is read from it. I, II: the chains in the order shown. X1 = C[C@@H](CNC(=O)[*:1])N[*:2]; Nle = CCCC[C@H](N)C(=O)O

Key:
human glucagon receptor = biological target: T1, human glucagon receptor (Homo sapiens, UniProt P47871); assay: Glucagon functional assay: agonist activity by cAMP production (HTRF) in transfected CHO cells; format: cell-based; settings: for EC50: cAMP production, transfected CHO cells, 10 minutes at 37° C.
T1 construct: expressed in transfected cells; host or cells: CHO cells
Description: Functional Assay to Examine Bioactivity of Glucagon Receptor Agonists. Evaluation of the agonist activity of compounds at the human glucagon receptor expressed in transfected CHO cells was examined by measuring their effects on cAMP production using the HTRF detection method. […] For stimulated control measurement, separate assay wells contain 100 nM glucagon were utilized.
Following incubation, the cells were lysed and the fluorescence acceptor (D2-labeled cAMP) and fluorescence donor (anti-cAMP antibody labeled with europium cryptate) were added. […] The results are expressed as a percent of the control response to 100 nM glucagon. The standard reference agonist is glucagon, which was tested in each experiment at several concentrations to generate a concentration-response curve from which its EC50 value was calculated.
HTRF (Homogeneous Time-Resolved Fluorescence) principle. The HTRF technology is based on time resolved fluorescence energy transfer (TR-FRET), which occurs between long-lived fluorophore Europium or Terbium Cryptates, and EuK or Tb respectively, as a donor and the allophycocyanin XL665, d2 or Red as acceptor. Many compounds and proteins present in biological fluids or serum are naturally fluorescent, and the use of conventional, prompt fluorescence leads to serious limitations in assay sensitivity. The use of long-lived fluorophore combined with time-resolved detection (a delay between excitation and emission detection) minimizes prompt fluorescence interference.

[1] = Solubility of glucagon analogs (UV absorbance); format: physicochemical; settings: for solubility: 0.01M HCl solution adjusted to pH 7 with Na2HPO4, pH 7, pH adjusted to 7 with Na2HPO4, incubated overnight at 4° C.; for ratio (solubility relative to reference compound 16): relative to compound 16;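 as to all read-outs here: peptide stock at 3 mg/ml in 0.01 M HCl, absorbance at 280 nm read before neutralization and again on the diluted supernatant after centrifugation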
Description: A solution of 3 mg/ml of glucagon (or analog) was prepared in a 0.01M HCl solution. Then 0.1 ml of the stock solution was diluted to 1 ml with HCl (0.01M) and the UV absorbance measured (to 280 nm) with nanodrop UV spectrometer. The pH of the remaining stock solution was adjusted to 7 using Na2HPO4, and the solution was incubated overnight at 4° C. The solution was then centrifuged three times (5 minutes, 4000 rotations per minute), 0.1 ml of the supernatant was removed and diluted to 1 ml with HCl solution (0.01M).
The final UV absorbance was measured.

T1 sequence (P47871 26-477): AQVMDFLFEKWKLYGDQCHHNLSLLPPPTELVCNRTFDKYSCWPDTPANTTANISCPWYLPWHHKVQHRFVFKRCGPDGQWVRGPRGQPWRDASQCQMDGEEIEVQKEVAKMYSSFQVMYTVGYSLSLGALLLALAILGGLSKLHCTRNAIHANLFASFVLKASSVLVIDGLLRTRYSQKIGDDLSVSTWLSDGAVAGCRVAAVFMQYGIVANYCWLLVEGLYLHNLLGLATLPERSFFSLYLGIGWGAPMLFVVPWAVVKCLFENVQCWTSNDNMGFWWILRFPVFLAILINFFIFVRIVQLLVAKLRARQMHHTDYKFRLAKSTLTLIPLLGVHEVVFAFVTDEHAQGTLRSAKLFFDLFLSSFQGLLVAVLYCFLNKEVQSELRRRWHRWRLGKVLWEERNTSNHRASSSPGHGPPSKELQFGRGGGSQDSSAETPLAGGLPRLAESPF

With `CC(C)C[C@H](NC(=O)[C@H](Cc1ccc(O)cc1)NC(=O)[C@H](CCCCN)NC(=O)[C@H](CO)NC(=O)[C@H](Cc1ccc(O)cc1)NC(=O)[C@H](CC(=O)O)NC(=O)[C@H](CO)NC(=O)[C@@H](NC(=O)[C@H](Cc1ccccc1)NC(=O)[C@@H](NC(=O)CNC(=O)[C@H](CCC(N)=O)NC(=O)[C@H](CO)NC(=O)[C@@H](N)Cc1c[nH]cn1)[C@@H](C)O)[C@@H](C)O)C(=O)N[C@@H](CC(=O)O)C(=O)N[C@@H](CO)C(=O)N[C@@H](CCCNC(=N)N)C(=O)N[C@@H](CCCNC(=N)N)C(=O)N[C@@H](C)C(=O)N[C@@H](CCC(N)=O)C(=O)N[C@@H](CC(=O)O)C(=O)N[C@@H](Cc1ccccc1)C(=O)N[C@H](C(=O)N[C@@H](CCC(N)=O)C(=O)N[C@@H](Cc1c[nH]c2ccccc12)C(=O)N[C@@H](CC(C)C)C(=O)N[C@@H](C)CNC(=O)N[C@@H](CC(N)=O)C(=O)N[C@H](C(=O)O)[C@@H](C)O)C(C)C` [Compound 34] the EC50 (human glucagon receptor) was 2.5 nM, the solubility [1] was 860 µg/mL (≈ 249 µM) and the “ratio (solubility relative to reference compound 16)” value [1] was 3.4.
`CCCC[C@H](NC(=O)[C@H](CC(C)C)NC(=O)[C@H](Cc1c[nH]c2ccccc12)NC(=O)[C@H](CCC(N)=O)NC(=O)[C@@H](NC(=O)[C@H](Cc1ccccc1)NC(=O)[C@H](CC(=O)O)NC(=O)[C@H](CCC(N)=O)NC(=O)[C@H](C)NC(=O)[C@H](CCCNC(=N)N)NC(=O)[C@H](CCCNC(=N)N)NC(=O)[C@H](CO)NC(=O)[C@H](CC(=O)O)NC(=O)[C@H](CC(C)C)NC(=O)[C@H](Cc1ccc(O)cc1)NC(=O)[C@H](CCCCN)NC(=O)[C@H](CO)NC(=O)[C@H](Cc1ccc(O)cc1)NC(=O)[C@H](CC(=O)O)NC(=O)[C@H](CO)NC(=O)[C@@H](NC(=O)[C@H](Cc1ccccc1)NC(=O)[C@@H](NC(=O)CNC(=O)[C@H](CCC(N)=O)NC(=O)[C@H](CO)NC(=O)[C@@H](N)Cc1c[nH]cn1)[C@@H](C)O)[C@@H](C)O)C(C)C)C(=O)N[C@@H](C)CNC(=O)N[C@H](C(=O)O)[C@@H](C)O` [Compound 35] gave an EC50 (human glucagon receptor) of 0.44 nM.
With `CCCC[C@H](NC(=O)[C@H](CC(C)C)NC(=O)[C@H](Cc1c[nH]c2ccccc12)NC(=O)[C@H](CCC(N)=O)NC(=O)[C@@H](NC(=O)[C@H](Cc1ccccc1)NC(=O)[C@H](CC(=O)O)NC(=O)[C@H](CCC(N)=O)NC(=O)[C@H](C)NC(=O)[C@H](CCCNC(=N)N)NC(=O)[C@H](CCCNC(=N)N)NC(=O)[C@H](CO)NC(=O)[C@H](CC(=O)O)NC(=O)[C@H](CC(C)C)NC(=O)[C@H](Cc1ccc(O)cc1)NC(=O)[C@H](CCCCN)NC(=O)[C@H](CO)NC(=O)[C@H](Cc1ccc(O)cc1)NC(=O)[C@H](CC(=O)O)NC(=O)[C@H](CO)NC(=O)[C@@H](NC(=O)[C@H](Cc1ccccc1)NC(=O)[C@@H](NC(=O)CNC(=O)[C@H](CCC(N)=O)NC(=O)[C@H](CO)NC(=O)[C@@H](N)Cc1c[nH]cn1)[C@@H](C)O)[C@@H](C)O)C(C)C)C(=O)N[C@@H](CC(N)=O)C(=O)N[C@@H](C)CNC(N)=O` [Compound 36] the “% bioactivity of reference, GCG-R” value (human glucagon receptor; Reference Compound 16) was 246% and the EC50 (human glucagon receptor) was 0.026 nM.
With `CCCC[C@H](NC(=O)[C@H](CC(C)C)NC(=O)[C@H](Cc1c[nH]c2ccccc12)NC(=O)[C@H](CCC(N)=O)NC(=O)[C@@H](NC(=O)[C@H](Cc1ccccc1)NC(=O)[C@H](CC(=O)O)NC(=O)[C@H](CCC(N)=O)NC(=O)[C@H](C)NC(=O)[C@H](CCCNC(=N)N)NC(=O)[C@H](CCCNC(=N)N)NC(=O)[C@H](CO)NC(=O)[C@H](CC(=O)O)NC(=O)NC[C@H](C)NC(=O)[C@H](Cc1ccc(O)cc1)NC(=O)[C@H](CCCCN)NC(=O)[C@H](CO)NC(=O)[C@H](Cc1ccc(O)cc1)NC(=O)[C@H](CC(=O)O)NC(=O)[C@H](CO)NC(=O)[C@@H](NC(=O)[C@H](Cc1ccccc1)NC(=O)[C@@H](NC(=O)CNC(=O)[C@H](CCC(N)=O)NC(=O)[C@H](CO)NC(=O)[C@@H](N)Cc1c[nH]cn1)[C@@H](C)O)[C@@H](C)O)C(C)C)C(=O)N[C@@H](CC(N)=O)C(=O)N[C@H](C(=O)O)[C@@H](C)O` [Compound 51] (I: DSRRAQDFVQWL[Nle]NT-OH / II: H-HSQGTFTSDYSKY; linker I:N-II:C via X1; C-terminus assumed) the EC50 (human glucagon receptor) was 68 nM, the solubility [1] was 560 µg/mL (≈ 162 µM) and the “ratio (solubility relative to reference compound 16)” value [1] was 2.2.
